This passage reports activity results from patent US20230391752A1, “PYRROLIDINE-3-CARBOXAMIDE DERIVATIVES AND RELATED USES” (Chulalongkorn University, priority 2020, published 2023).

The subject of this test is HBV. Nature of the test: In vitro anti-HBV activity in HepG2.2.15 cell line (intracellular HBV DNA by qPCR at 1 μM). The format is cell-based. The conditions noted are these: Hepatitis B virus, 144 h; HepG2.2.15 cells, 1 μM compound, 6 days, intracellular HBV DNA as percentage compared to vehicle control (0.5% DMSO). On the procedure:
The stable transfected HBV cell line, called HepG2.2.15 cells was a valuable model with high reproducibility and commonly used for drug screening. To identify the anti-HBV activity, HepG2.2.15 cells were seeded at 5×10^5 cells/well with high glucose Dulbecco's modified Eagle medium (DMEM) containing 10% heat inactivated fetal bovine serum (FBS), 300 mg/L G418, non-essential amino acids (NEAA) 100 units/ml Antibiotic-Antimycotic, and allowed to stand for an overnight in an incubator set at 37° C. and 5% C02. HepG2.2.15 cells in each well were treated with the medium containing a compound (1 μM with 0.5% dimethyl sulfoxide (DMSO final concentration) for three days in the incubator. After that the medium was removed and fresh medium containing the compound was added to the cells for another 3 days. After 6 days of treatment, intracellular HBV DNA was extracted and determined by using quantitative real-time PCR (qPCR) technique with specific primers. Intrahepatic HBV DNA viral load was reported as percentage compared to vehicle control (0.5% DMSO) as shown in Table A.
“B” means % ranging between 80 and 90; “C” means % ranging between 70 and 80; “D” means % ranging between 60 and 70; “E” means % ranging between 45 and 60, “F” means %<45.
In general terms: Real-time PCR tracks product formation cycle by cycle.

The structures appear in SMILES notation. Some results are limits rather than exact numbers.

Compound `O=C(Nc1cc(F)c(F)c(F)c1)[C@H]1CCN(C(=O)c2[nH]ccc2Cl)C1` [Example 16, (S)-1-(3-chloro-1H-pyrrole-2-carbonyl)-N-(3,4,5-trifluorophenyl)pyrrolidine-3-carboxamide] displayed an activity at 1 µM above 90%.

`Cn1ccnc1-c1ccc(C(=O)N2CC[C@H](C(=O)Nc3cc(F)c(F)c(F)c3)C2)[nH]1` [Example 91, (S)-1-(5-(1-methyl-1H-imidazol-2-yl)-1H-pyrrole-2-carbonyl)-N-(3,4,5-trifluorophenyl)pyrrolidine-3-carboxamide] registered an activity at 1 µM below 45%.

In turn, `N#Cc1ncccc1-c1ccc(C(=O)N2CC[C@H](C(=O)Nc3cc(F)c(F)c(F)c3)C2)[nH]1` [Example 97, (S)-1-(5-(2-cyanopyridin-3-yl)-1H-pyrrole-2-carbonyl)-N-(3,4,5-trifluorophenyl) pyrrolidine-3-carboxamide] yielded an activity at 1 µM below 45%.

In turn, `O=C(Nc1cc(F)c(F)c(F)c1)[C@H]1CCN(C(=O)c2cc3nccnc3[nH]2)C1` [Example 23, (S)-1-(5H-pyrrolo[2,3-b]pyrazine-6-carbonyl)-N-(3,4,5-trifluorophenyl)pyrrolidine-3-carboxamide] had an activity at 1 µM of 70 to 80%.

`Cc1cc(NC(=O)[C@@H]2CN(C(=O)c3ccc(-c4c(C)ncnc4C)[nH]3)C[C@H]2C)ccc1F` [Example 168, (3S,4S)-1-(5-(4,6-dimethylpyrimidin-5-yl)-1H-pyrrole-2-carbonyl)-N-(4-fluoro-3-methylphenyl)-4-methylpyrrolidine-3-carboxamide] came in with an activity at 1 µM of 45 to 60%.

`Cc1cn[nH]c(=O)c1-c1ccc(C(=O)N2CC[C@H](C(=O)Nc3cc(F)c(F)c(F)c3)C2)[nH]1` [Example 124, (S)-1-(5-(5-methyl-3-oxo-2,3-dihydropyridazin-4-yl)-1H-pyrrole-2-carbonyl)-N-(3,4,5-trifluorophenyl)pyrrolidine-3-carboxamide] gave an activity at 1 µM of 45 to 60%.

The compound `O=C(Nc1cc(F)c(F)c(F)c1)[C@H]1CCN(C(=O)c2c[nH]c3ccccc23)C1` [Example 26, (S)-1-(1H-indole-3-carbonyl)-N-(3,4,5-trifluorophenyl)pyrrolidine-3-carboxamide] registered an activity at 1 µM of 80 to 90%.

The compound `Cc1ncnc(C)c1-c1ccc(C(=O)N2CC[C@H](C(=O)Nc3ccc(F)c(C4CC4)c3)[C@@H]2C)[nH]1` [Example 170, (2S,3S)—N-(3-cyclopropyl-4-fluorophenyl)-1-(5-(4,6-dimethylpyrimidin-5-yl)-1H-pyrrole-2-carbonyl)-2-methylpyrrolidine-3-carboxamide] returned an activity at 1 µM below 45%.

The compound `Cc1n[nH]cc1C(=O)N1CC[C@H](C(=O)Nc2cc(F)c(F)c(F)c2)C1` [Example 31, (S)-1-(3-methyl-1H-pyrazole-4-carbonyl)-N-(3,4,5-trifluorophenyl)pyrrolidine-3-carboxamide] returned an activity at 1 µM above 90%.

Take `N#Cc1cc(NC(=O)[C@H]2CCN(C(=O)c3ccc(-c4ccncc4)[nH]3)C2)ccc1F` [Example 78, (S)—N-(3-cyano-4-fluorophenyl)-1-(5-(pyridin-4-yl)-1H-pyrrole-2-carbonyl)pyrrolidine-3-carboxamide]: the activity at 1 µM was in the range of 70 to 80%.

As to `Cc1ncnc(C)c1-c1ccc(C(=O)N2CC[C@H](C(=O)Nc3ccc(F)c(C#N)c3)C2)[nH]1` [Example 94, (S)—N-(3-cyano-4-fluorophenyl)-1-(5-(4,6-dimethylpyrimidin-5-yl)-1H-pyrrole-2-carbonyl)pyrrolidine-3-carboxamide], the activity at 1 µM is 60 to 70%.

With `Cc1n[nH]c(C)c1-c1ccc(C(=O)N2CC[C@H](C(=O)Nc3cc(F)c(F)c(F)c3)C2)[nH]1` [Example 87, (S)-1-(5-(3,5-dimethyl-1H-pyrazol-4-yl)-1H-pyrrole-2-carbonyl)-N-(3,4,5-trifluorophenyl) pyrrolidine-3-carboxamide], the activity at 1 µM was below 45%.

Regarding `O=C(Nc1cc(F)c(F)c(F)c1)[C@H]1CCN(C(=O)c2ccc(-c3ccncc3F)[nH]2)C1` [Example 95, (S)-1-(5-(3-fluoropyridin-4-yl)-1H-pyrrole-2-carbonyl)-N-(3,4,5-trifluorophenyl) pyrrolidine-3-carboxamide], the activity at 1 µM was in the range of 45 to 60%.

The compound `Cc1ccc(C(=O)N2CC[C@H](C(=O)Nc3cc(F)c(F)c(F)c3)C2)s1` [Example 44, (S)-1-(5-methylthiophene-2-carbonyl)-N-(3,4,5-trifluorophenyl)pyrrolidine-3-carboxamide] came in with an activity at 1 µM of 70 to 80%.

On to `Cc1cc(NC(=O)[C@H]2CCN(C(=O)c3ccc(-c4c(C)nn(CCO)c4C)[nH]3)[C@H]2C)ccc1F` [Example 126, (2S,3S)—N-(4-fluoro-3-methylphenyl)-1-(5-(1-(2-hydroxyethyl)-3,5-dimethyl-1H-pyrazol-4-yl)-1H-pyrrole-2-carbonyl)-2-methylpyrrolidine-3-carboxamide], for which the activity at 1 µM was below 45%.

In turn, `Cc1nccnc1-c1ccc(C(=O)N2CC[C@H](C(=O)Nc3cc(F)c(F)c(F)c3)C2)[nH]1` [Example 92, (S)-1-(5-(3-methylpyrazin-2-yl)-1H-pyrrole-2-carbonyl)-N-(3,4,5-trifluorophenyl)pyrrolidine-3-carboxamide] yielded an activity at 1 µM of 45 to 60%.

The compound `Cc1ccc2[nH]c(C(=O)N3CC[C@H](C(=O)Nc4cc(F)c(F)c(F)c4)C3)cc2c1` [Example 55, (S)-1-(5-methyl-1H-indole-2-carbonyl)-N-(3,4,5-trifluorphenyl)pyrrolidine-3-carboxamide] returned an activity at 1 µM above 90%.

In turn, `Cc1cc(C)c(C(=O)N2CC[C@H](C(=O)Nc3cc(F)c(F)c(F)c3)C2)[nH]1` [Example 34, (S)-1-(3,5-dimethyl-1H-pyrrole-2-carbonyl)-N-(3,4,5-trifluorophenyl)pyrrolidine-3-carboxamide] showed an activity at 1 µM above 90%.

`O=C(Nc1cc(F)c(F)c(F)c1)[C@H]1CCN(C(=O)c2nccs2)C1` [Example 28, (S)-1-(thiazole-2-carbonyl)-N-(3,4,5-trifluorophenyl)pyrrolidine-3-carboxamide] yielded an activity at 1 µM above 90%.

In turn, `O=C(Nc1cc(F)c(F)c(F)c1)[C@H]1CCN(C(=O)c2nc3ccccc3[nH]2)C1` [Example 25, (S)-1-(1H-benzo[d]imidazole-2-carbonyl)-N-(3,4,5-trifluorophenyl)pyrrolidine-3-carboxamide] came in with an activity at 1 µM of 60 to 70%.

`Cc1ncccc1C(=O)c1ccc(C(=O)N2CC[C@H](C(=O)Nc3cc(F)c(F)c(F)c3)C2)[nH]1` [Example 144, (S)-1-(5-(2-methylnicotinoyl)-1H-pyrrole-2-carbonyl)-N-(3,4,5-trifluorophenyl)pyrrolidine-3-carboxamide] showed an activity at 1 µM above 90%.

In turn, `Cc1nn(C)cc1Cc1ccc(C(=O)N2CC[C@H](C(=O)Nc3cc(F)c(F)c(F)c3)C2)[nH]1` [Example 146, (S)-1-(5-((1,3-dimethyl-1H-pyrazol-4-yl)methyl)-1H-pyrrole-2-carbonyl)-N-(3,4,5-trifluorophenyl)pyrrolidine-3-carboxamide] registered an activity at 1 µM of 70 to 80%.

As for `N#Cc1c(C(=O)N2CC[C@H](C(=O)Nc3cc(F)c(F)c(F)c3)C2)[nH]c2ncccc12` [Example 63, (S)-1-(3-cyano-1H-pyrrolo[2,3-b]pyridine-2-carbonyl)-N-(3,4,5-trifluorophenyl)pyrrolidine-3-carboxamide], the activity at 1 µM is 70 to 80%.

Consider `O=C(Nc1cc(F)c(F)c(F)c1)[C@H]1CCN(C(=O)c2ccc3cc[nH]c3c2)C1` [Example 35, (S)-1-(1H-indole-6-carbonyl)-N-(3,4,5-trifluorophenyl)pyrrolidine-3-carboxamide], for which the activity at 1 µM was in the range of 70 to 80%.

`O=C(Nc1cc(F)c(F)c(F)c1)[C@H]1CCN(C(=O)c2cnc[nH]2)C1` [Example 30, (S)-1-(1H-imidazole-5-carbonyl)-N-(3,4,5-trifluorophenyl)pyrrolidine-3-carboxamide]: the activity at 1 µM is above 90%.

`Cc1n[nH]c(C)c1-c1ccc2cc(C(=O)N3CC[C@H](C(=O)Nc4cc(F)c(F)c(F)c4)C3)[nH]c2c1` [Example 134, (S)-1-(6-(3,5-dimethyl-1H-pyrazol-4-yl)-1H-indole-2-carbonyl)-N-(3,4,5-trifluorophenyl)pyrrolidine-3-carboxamide]: the activity at 1 µM is below 45%.

With `Cc1nccnc1-c1ccc(C(=O)N2CC[C@H](C(=O)Nc3cc(F)c(F)c(F)c3)[C@@H]2C)[nH]1` [Example 93, (2S,3S)-2-methyl-1-(5-(3-methylpyrazin-2-yl)-1H-pyrrole-2-carbonyl)-N-(3,4,5-trifluorophenyl) pyrrolidine-3-carboxamide], the activity at 1 µM is below 45%.

`Cc1ccc2cc(C(=O)N3CC[C@H](C(=O)Nc4cc(F)c(F)c(F)c4)C3)[nH]c2c1` [Example 13, (S)-1-(6-methyl-1H-indole-2-carbonyl)-N-(3,4,5-trifluorophenyl)pyrrolidine-3-carboxamide] gave an activity at 1 µM of 60 to 70%.

Regarding `C[C@H]1[C@@H](C(=O)Nc2cc(F)c(F)c(F)c2)CCN1C(=O)c1cc2cccnc2[nH]1` [Example 17, (2S,3S)-2-methyl-1-(1H-pyrrolo[2,3-b]pyridine-2-carbonyl)-N-(3,4,5-trifluorophenyl) pyrrolidine-3-carboxamide], the activity at 1 µM was in the range of 60 to 70%.

Compound `Cc1ccc(C(=O)N2CC[C@H](C(=O)Nc3ccc(F)c(C#N)c3)[C@@H]2C)[nH]1` [Example 66, (2S,3S)—N-(3-cyano-4-fluorophenyl)-2-methyl-1-(5-methyl-1H-pyrrole-2-carbonyl)pyrrolidine-3-carboxamide] showed an activity at 1 µM of 45 to 60%.
